Assay results published in BindingDB's records for doi:10.1016/s0167-0115(98)00049-4 (Uppsala University, 1998).
Non-standard residues stand in square brackets, D forms with d. Residues, ends and D or L forms follow the SMILES beside them. Ahx = NCCCCCC(=O)O

target: T1, Neuropeptide Y receptor type 2 (Cavia porcellus, UniProt Q9Z2D5)
T1 sequence (Q9Z2D5 whole entry): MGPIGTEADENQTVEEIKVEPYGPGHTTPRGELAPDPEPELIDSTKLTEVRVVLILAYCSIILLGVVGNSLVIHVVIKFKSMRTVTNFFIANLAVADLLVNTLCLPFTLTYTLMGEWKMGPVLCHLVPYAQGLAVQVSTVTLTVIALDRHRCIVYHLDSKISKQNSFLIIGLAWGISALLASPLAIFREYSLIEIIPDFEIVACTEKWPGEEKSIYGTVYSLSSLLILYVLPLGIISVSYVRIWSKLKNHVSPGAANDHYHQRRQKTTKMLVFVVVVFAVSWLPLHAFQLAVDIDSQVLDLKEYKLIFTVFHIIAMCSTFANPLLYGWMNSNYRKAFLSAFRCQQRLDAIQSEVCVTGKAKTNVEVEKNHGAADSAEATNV

Ki | Molecule
295 nM | H-INPIYRLRY-NH2 [NPY 28-36, [P30, Y32, L34]]
85.3 nM | CC[C@H](C)[C@H](NC(=O)[C@H](Cc1ccc(O)cc1)NC(=O)[C@H](Cc1cnc[nH]1)NC(=O)[C@H](CCCNC(=N)N)NC(=O)[C@H](CC(C)C)NC(=O)[C@H](C)NC(=O)[C@H](CO)NC(=O)[C@H](Cc1ccc(O)cc1)NC(=O)CCCCCNC(=O)[C@H](CC(N)=O)NC(=O)[C@H](CC(=O)O)NC(=O)[C@@H]1CCCN1C(=O)[C@H](CCCCN)NC(=O)[C@H](CO)NC(=O)[C@@H]1CCCN1C(=O)[C@@H](N)Cc1ccc(O)cc1)C(=O)N[C@@H](CC(N)=O)C(=O)N[C@@H](CC(C)C)C(=O)N[C@H](C(=O)N[C@H](C(=O)N[C@@H](CCCNC(=N)N)C(=O)N1CCC[C@H]1C(=O)N[C@@H](CCCNC(=N)N)C(=O)N[C@@H](Cc1ccc(O)cc1)C(N)=O)[C@@H](C)O)[C@@H](C)CC [NPY8-20, Pro34, Ahx] (H-YPSKPDN[Ahx]YSALRHYINLITRPRY-NH2)
0.117 nM | CC[C@H](C)[C@H](NC(=O)[C@H](Cc1ccc(O)cc1)NC(=O)[C@H](Cc1c[nH]cn1)NC(=O)[C@H](CCCNC(=N)N)NC(=O)[C@H](CC(C)C)NC(=O)[C@H](C)NC(=O)[C@H](CO)NC(=O)[C@H](Cc1ccc(O)cc1)NC(=O)CCCCCNC(=O)[C@H](CC(N)=O)NC(=O)[C@H](CC(=O)O)NC(=O)[C@@H]1CCCN1C(=O)[C@H](CCCCN)NC(=O)[C@H](CO)NC(=O)[C@@H]1CCCN1C(=O)[C@@H](N)Cc1ccc(O)cc1)C(=O)N[C@@H](CC(N)=O)C(=O)N[C@@H](CC(C)C)C(=O)N[C@H](C(=O)N[C@H](C(=O)N[C@@H](CCCNC(=N)N)C(=O)N[C@@H](CCC(N)=O)C(=O)N[C@@H](CCCNC(=N)N)C(=O)N[C@@H](Cc1ccc(O)cc1)C(N)=O)[C@@H](C)O)[C@@H](C)CC [NPY8-20, Ahx] (H-YPSKPDN[Ahx]YSALRHYINLITRQRY-NH2)
0.136 nM | CC[C@H](C)[C@H](NC(=O)[C@H](Cc1ccc(O)cc1)NC(=O)[C@H](Cc1cnc[nH]1)NC(=O)[C@H](CCCN=C(N)N)NC(=O)[C@H](CC(C)C)NC(=O)[C@H](C)NC(=O)[C@@H](N)CO)C(=O)N[C@@H](CC(N)=O)C(=O)N[C@@H](CC(C)C)C(=O)N[C@H](C(=O)N[C@H](C(=O)N[C@@H](CCCN=C(N)N)C(=O)N[C@@H](CCC(N)=O)C(=O)N[C@@H](CCCN=C(N)N)C(=O)N[C@@H](Cc1ccc(O)cc1)C(N)=O)[C@@H](C)O)[C@@H](C)CC [NPY22-36, rat, human]
1000 nM | H-APLEPEYPGDNATPEQMAQYAAELRRYINMLTRPRY-NH2 [CAS_59763-91-6]
0.181 nM | CC[C@H](C)[C@H](NC(=O)[C@H](Cc1ccc(O)cc1)NC(=O)[C@H](Cc1cnc[nH]1)NC(=O)[C@H](CCCNC(=N)N)NC(=O)CCCCCNC(=O)[C@H](CCCCN)NC(=O)[C@H](CO)NC(=O)[C@@H]1CCCN1C(=O)[C@@H](N)Cc1ccc(O)cc1)C(=O)N[C@@H](CC(N)=O)C(=O)N[C@@H](CC(C)C)C(=O)N[C@H](C(=O)N[C@H](C(=O)N[C@@H](CCCNC(=N)N)C(=O)N[C@@H](CCC(N)=O)C(=O)N[C@@H](CCCNC(=N)N)C(=O)N[C@@H](Cc1ccc(O)cc1)C(N)=O)[C@@H](C)O)[C@@H](C)CC [NPY5-24, Ahx] (H-YPSK[Ahx]RHYINLITRQRY-NH2)
